Tests used:
KMS-II = assay: WST-1 proliferation assay, KMS-II; assay type: cell-based; conditions: Homo sapiens; Myeloma KMS-II; read-out: Anti-proliferative activity IC50 (μM) ± SD
Experimental: (§1) All the cancer cell lines were maintained in cultured in DMEM GlutaMAX™ (GIBCO Invitrogen, France, cat no 31966047) enhanced with 10% foetal bovine serum (GIBCO Invitrogen, France, cat no 10270-106) and 1% penicillin G/streptomycin (GIBCO Invitrogen, France, cat no 15140-122). Only Panc-10.5 cells were cultivated in RPMI 1640 medium (Gibco) supplemented with 2 mM L-glutamine, 1.5 g/L sodium bicarbonate, 4.5 g/L glucose, 10 mM HEPES, 1 mM sodium pyruvate, 10 Units/ml human insulin, […] (SVF): 15% (75 ml in 500 ml of medium).
(§2) Cells were grown as subconfluent monolayer and cultured in 75 cm^2 flasks at 37° C., 5% CO2 in a humidified atmosphere, and medium was changed every two days. […]
(§3) The cell proliferation WST-1 assay is a colorimetric assay for the quantification of cell proliferation and viability, based on the enzymatic cleavage of the tetrazolium salt WST-1 added to the culture medium, to a water soluble colored formazan dye, detected by absorbance at 450 nm, by mitochondrial succinate-tetrazolium reductase in viable cells. […]
(§4) After an incubation period of 72 h, at day 4, were prepared the 19 ml medium with reagent WST-1 1 ml ([…]). […] The cells were incubated at 37° C. in a humidified atmosphere of 5% CO2 for 1 h 30 and the absorbance at 450-655 nm was measured by Microplate Manager 5.2 (Bio-Rad).

ERY-1 = assay: WST-1 proliferation assay, ERY-1; assay type: cell-based; conditions: Homo sapiens; Erythroleukemia ERY-1; read-out: Anti-proliferative activity IC50 (μM) ± SD
Experimental: as §1, §2, §3, §4

[1] = test system: breast cancer cells (MDA-MB-231); assay: Motility assay (videomicroscopy), MDA-MB-231; assay type: cell-based, Human; conditions: IC50 concentration, 24 h (FIG. 6)
Experimental: The dishes were placed in an enclosed warming incubator on the motorized stage of a computer-controlled Eclipse Ti inverted microscope (Nikon Instruments Europe) equipped with a CCD Cool-SNAP HQ2 camera (Roper Scientific, USA) and a PC workstation. The incubator allowed samples to be kept at 37° C. in a humidified atmosphere containing 5% CO2, 95% air. Phase images were recorded at 100× every 5 min simultaneously over several fields from 0 till 24 h (288 frames). Cell motility was tracked and analyzed for at least 25 cells in each field over three independent experiments. The total distance of migration and the speed of migration were analyzed. The degree of persistence of movement was defined as the ratio between the linear distance and the total distance covered by the cells. Image acquisition and analyses were carried out using Metamorph 7 software (Universal Imaging).

HCT-116 = assay: WST-1 proliferation assay, HCT-116; assay type: cell-based; conditions: Homo sapiens; for IC50: Colon HCT-116, 72 h, read-out: Anti-proliferative activity IC50 (μM) ± SD; for inhibition at 0.1 µM: HCT-116, 0.1 μM; for inhibition at 0.5 µM: HCT-116, 0.5 μM; for inhibition at 1 µM: HCT-116, 1 μM
Description: (§5) Several cancer cell lines were used: breast cancer cells (MDA-MB-231 (ATTCC® Number HTB-26™), MDA-MB-436 (ATTCC® Number HTB-130™), MDA-MB-438, BT-474 (ATTCC® Number HTB-20™)); cervical cancer cells (HeLa (ATTCC® Number CCL-2™)); colon cancer cells (HCT-116 (ATTCC® Number CCL-247™) and HT-29 (ATTCC® Number HTB-38™)); osteosarcoma cells (U2OS (ATTCC® Number HTB-96™)); pancreas cancer cells (MIA PaCa-2 (ATTCC® Number CRL-1420™) and Panc-10.5 (ATTCC® Number CRL-2547™)); prostate cancer cells (PC-3 (ATTCC® Number CRL-1435™) and LNCaP (ATTCC® Number CRL-1740™)); brain cancer cells (U87 glioblastoma (ATTCC® Number HTB-14™) and SH-SYSY neuroblastoma (ATTCC® Number CRL-2266™)).
as §1
(§6) Cells were grown as subconfluent monolayer and cultured in 75 cm^2 flasks at 37° C., 5% CO2 in a humidified atmosphere, and medium was changed every two days. Only cells from passages 2-6 were used for the experiments.
(§7) After observation of cells under the microscope, old media were removed and the adherent cells washed gently twice with PBS (Phosphate Buffer Saline, —Ca^2+, —Mg^2+, Lonza cat no: 17-512F/12). All cells were detached with 3 ml of trypsin/EDTA (chelator of calcium and magnesium ions) (Lonza), incubated for 5 min at 37° C., and examined using a microscope to ensure that the cells were detached and floating. Then, 3 ml TNS (Trypsin Neutralizing Solution, Lonza, France, cat no CC-5002) or of culture medium were added to inactivate the trypsin, and the cell suspension was transferred in a falcon and centrifuged for 7 min at 1400 rpm. The supernatant was removed and the cell pellet resuspended in […] of culture medium. 50 μl of this solution were transferred in 20 μl of isotonic solution and the cells were counted by count cellular (Beckman Coulter). At day 0, 200 μl of cellular suspension (3.10^3 cells/well for the HUVEC cells, breast cancer cells (MDA-MB-231 1.10^4 cells/well, MDA-MB-436 1.10^4 cells/well, MDA-MB-438 2.10^4 cells/well, BT-474 2.5.10^4 cells/well); cervical cancer cells (HeLa 5.000 cells/well); colon cancer cells (HCT-116 5.10^3 cells/well, HCT-29 1.1.10^4 cells/well); osteosarcoma cells (U2OS 8.10^3 cells/well); pancreas cancer cells (MIA PaCa-2 5.10^3 cells/well, Panc-10.5 1.5.10^4 cells/well); prostate cancer cells (PC-3 4.10^3 cells/well, LNCaP 2.10^4 cells/well); brain cancer cells (U87 5.10^3 cells/well, SH-SYSY 8.10^4 cells/well)) were then plated on 96 well plates and incubated at 37° C. in a humidified atmosphere of 5% CO2 for 24 h.
(§8) At day 1, the compounds 1 or 2 of the invention were added at increasing concentrations (0.1-10 μM) in the wells and plates were incubated at 37° C. in a humidified atmosphere of 5% CO2 for 72 h.
(§9) The cell proliferation WST-1 assay is a colorimetric assay for the quantification of cell proliferation and viability, based on the enzymatic cleavage of the tetrazolium salt WST-1 added to the culture medium, to a water soluble colored formazan dye, detected by absorbance at 450 nm, by mitochondrial succinate-tetrazolium reductase in viable cells. An augmentation in enzyme activity will then lead to an increase in the amount of formazan dye formed, which directly correlates to the number of metabolically active cells in the culture.
(§10) After an incubation period of 72 h, at day 4, were prepared the 19 ml medium with reagent WST-1 1 ml ([…]). The medium was removed from the 96 microplate and 200 μl of solution WST-1/medium were added for each well. […]

MDA-MB-438 = assay: WST-1 proliferation assay, MDA-MB-438; assay type: cell-based; conditions: Homo sapiens; for IC50: Breast MDA-MB-438, 72 h, read-out: Anti-proliferative activity IC50 (μM) ± SD; for inhibition at 0.1 µM: MDA-MB-438, 0.1 μM; for inhibition at 0.5 µM: MDA-MB-438, 0.5 μM; for inhibition at 1 µM: MDA-MB-438, 1 μM
Description: as §5, §1, §6, §7, §8, §9, §10

O=C(NC(=S)Nc1cccc(-c2nc3ccccc3[nH]2)c1)c1ccc2c(c1)OCCO2 [Compound 2, N-[3-(1H-benzimidazol-2-yl)phenyl]-N′-(2,3-dihydro-1,4-benzodioxin-6-ylcarbonyl)thiourea]
IC50 (KMS-II): 1.8 ± 0.02 µM
IC50 (ERY-1): 0.1 ± 0.05 µM
motility (migration speed) of cancer cells [1]: significant anti-migratory effect
IC50 (HCT-116): 1 µM
inhibition at 0.1 µM (HCT-116): 49%
inhibition at 0.5 µM (HCT-116): 58%
inhibition at 1 µM (HCT-116): 60%
IC50 (MDA-MB-438): 0.5 ± 0.03 µM
inhibition at 0.1 µM (MDA-MB-438): 34%
inhibition at 0.5 µM (MDA-MB-438): 51%
inhibition at 1 µM (MDA-MB-438): 58%

Cc1ccc(-c2nc3ccccc3[nH]2)cc1NC(=S)NC(=O)c1ccc2c(c1)OCCO2 [Compound 1, N-[5-(1H-benzimidazol-2-yl)-2-methylphenyl]-N′-(2,3-dihydro-1,4-benzodioxin-6-ylcarbonyl)thiourea]
IC50 (KMS-II): 2.3 ± 0.01 µM
IC50 (ERY-1): 0.3 ± 0.04 µM
motility (migration speed) of cancer cells [1]: significant anti-migratory effect
IC50 (HCT-116): 1 µM
inhibition at 0.1 µM (HCT-116): 7%
inhibition at 0.5 µM (HCT-116): 51%
inhibition at 1 µM (HCT-116): 56%
IC50 (MDA-MB-438): 1 µM
inhibition at 0.1 µM (MDA-MB-438): 4%
inhibition at 0.5 µM (MDA-MB-438): 40%
inhibition at 1 µM (MDA-MB-438): 55%

Reference: patent US20130041005A1, “PHARMACEUTICAL COMPOSITIONS COMPRISING NEUROPILIN INHIBITORS, AND THEIR USE FOR THE PREVENTION AND/OR TREATMENT OF ANGIOGENIC DISORDERS AND CANCERS” (TRAGEX PHARMA, priority 2011, published 2013)
